# Assay results published in article PMC3479105, “K-134, a Phosphodiesterase 3 Inhibitor, Prevents Brain Damage by Inhibiting Thrombus Formation in a Rat Cerebral Infarction Model” (PLoS ONE, 2012).
# Where two headings read alike, the source gives them in different places.
# Columns and labels:
# [1] = Pharmacokinetics of cilostazol and its active metabolites in rats; type: in vivo, rat; conditions: single oral cilostazol 300 mg/kg, non-fasting male SD rats, n = 3; parent and metabolites
# Experimental: Pharmacokinetic variables (Cmax, AUC, Tmax and T1/2) were calculated from the plasma drug concentration-time curve. Cilostazol was orally administered to rats under non-fasting conditions at a single dose of 300 mg/kg to determine the concentration-time profile in serum (n = 3). Values are means (± SEM). […]
# [2] = Electron spin resonance (ESR) radical scavenging; conditions: ESR experiments, data not shown
# From the text: In the photothrombotic cerebral infarction model, photoactivation of rose bengal by illumination with green light results in reactive oxygen intermediates (predominantly singlet oxygen and superoxide). […] Therefore, we concluded that the observed inhibitory effects of K-134 on photothrombosis in this model are relevant to its antiplatelet activity but not radical scavenging activity.
# [3] = set-up: method as in PMID 10702882; conditions: human healthy male, single dose 100 mg of cilostazol, cited from earlier work
# [4] = test system: platelets; set-up: method as in earlier work; conditions: cited from earlier work
# [5] = converted from µg/L, read-out: Cmax
SMILES,AUC0-24h [1] [µM·h],Cmax [1] [nM],T1/2 [1] [h],Tmax [1] [h],scavenging activities against singlet oxygen and superoxide anion radical [2],"Cmax [3, 5] [nM]",AUC0–72 h ([3]; converted from µg/L·h) [µM·h],AUC0–72 h [3] [ng·h/mL],Cmax [3] [ng/mL],"antiplatelet activity, times more potent than cilostazol [4] [times]","antiplatelet activity, times less potent than cilostazol [4] [times]"
O=c1ccc2cc(OCCCCc3nnnn3C3CCCCC3)ccc2[nH]1 [OPC-13015],18.3,1400,6.8,3.2,did not show scavenging activities,330,6.59,~2423,~122,3,
O=C1CCc2cc(OCCCCc3nnnn3C3CCC(O)CC3)ccc2N1 (stereo not drawn) [OPC-13213],127.3,9100,6.1,,,170,1.60,~617,~64,,3
